The values that follow come from PubChem BioAssay AID248 (DTP/NCI, 2004).

“And” between values parts separate entries of the source, which are not always exact repeats. Identical values can stand only once. Toxic doses and inconclusive results are not listed.

In the test the test system is L1210 leukemia ip in BDF1 mice, survival T/C. Nature of the test: NCI In Vivo Anticancer Drug Screen. Data for tumor model L1210 Leukemia (intraperitoneal) in B6D2F1 (BDF1) mice. The note with it: higher = longer survival. The method in brief: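 Read-out is survival time, reported as the treated-group measurement over the vehicle-control measurement.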
[1] abbreviates: endpoint: mean survival time, dose: 100.0 mg/kg/injection, schedule: Q01DX001 (ip), vehicle: saline.
[2] abbreviates: endpoint: mean survival time, dose: 100.0 mg/kg/injection, schedule: Q04DX003 (ip), vehicle: Klucel (hydroxypropylcellulose) (HPC).
The mark [3] stands for this setting: endpoint: mean survival time, dose: 200.0 mg/kg/injection, schedule: Q01DX001 (ip), vehicle: saline.
[4] abbreviates: endpoint: mean survival time, dose: 200.0 mg/kg/injection, schedule: Q04DX003 (ip), vehicle: Klucel (hydroxypropylcellulose) (HPC).
The mark [5] stands for this setting: endpoint: mean survival time, dose: 400.0 mg/kg/injection, schedule: Q01DX001 (ip), vehicle: saline.
Setting [6] is: endpoint: mean survival time, dose: 400.0 mg/kg/injection, schedule: Q04DX003 (ip), vehicle: Klucel (hydroxypropylcellulose) (HPC).
Where [7] appears, read: endpoint: mean survival time, dose: 100.0 mg/kg/injection, schedule: Q01DX009 (ip), vehicle: saline.
[8] abbreviates: endpoint: mean survival time, dose: 200.0 mg/kg/injection, schedule: Q01DX009 (ip), vehicle: saline.
Setting [9] is: endpoint: mean survival time, dose: 400.0 mg/kg/injection, schedule: Q01DX009 (ip), vehicle: saline.
Where [10] appears, read: endpoint: mean survival time, dose: 100.0 mg/kg/injection, schedule: Q01DX009 (ip), vehicle: saline with Tween-80.
Setting [11] is: endpoint: mean survival time, dose: 100.0 mg/kg/injection, schedule: Q04DX003 (ip), vehicle: saline with Tween-80.
Where [12] appears, read: endpoint: mean survival time, dose: 200.0 mg/kg/injection, schedule: Q04DX003 (ip), vehicle: saline with Tween-80.
Where [13] appears, read: endpoint: mean survival time, dose: 400.0 mg/kg/injection, schedule: Q04DX003 (ip), vehicle: saline with Tween-80.
Where [14] appears, read: endpoint: mean survival time, dose: 200.0 mg/kg/injection, schedule: Q01DX009 (ip), vehicle: saline with Tween-80.
The mark [15] stands for this setting: endpoint: mean survival time, dose: 100.0 mg/kg/injection, schedule: Q01DX001 (ip), vehicle: Klucel (hydroxypropylcellulose) (HPC).
Where [16] appears, read: endpoint: mean survival time, dose: 200.0 mg/kg/injection, schedule: Q01DX001 (ip), vehicle: Klucel (hydroxypropylcellulose) (HPC).
Setting [17] is: endpoint: mean survival time, dose: 100.0 mg/kg/injection, schedule: Q01DX009 (ip), vehicle: Klucel (hydroxypropylcellulose) (HPC).
The mark [18] stands for this setting: endpoint: mean survival time, dose: 100.0 mg/kg/injection, schedule: Q04DX003 (ip), vehicle: saline.
The mark [19] stands for this setting: endpoint: mean survival time, dose: 200.0 mg/kg/injection, schedule: Q04DX003 (ip), vehicle: saline.
Where [20] appears, read: endpoint: mean survival time, dose: 400.0 mg/kg/injection, schedule: Q04DX003 (ip), vehicle: saline.

In the case of `C/C(=N\N=C(/C)c1cccc([N+](=O)[O-])c1)c1cccc([N+](=O)[O-])c1`, the T/C was 100 % of control (endpoint: mean survival time, dose: 100.0 mg/kg/injection, schedule: Q01DX001 (ip), vehicle: other); 100 % of control (endpoint: mean survival time, dose: 200.0 mg/kg/injection, schedule: Q01DX001 (ip), vehicle: other); 97 % of control (endpoint: mean survival time, dose: 400.0 mg/kg/injection, schedule: Q01DX001 (ip), vehicle: other).

`CN=C(NC)SC`: the T/C under setting [1] is 103 % of control; the T/C under setting [2] is 100 % of control; the T/C under setting [3] was 97 % of control; the T/C under setting [4] was 93 % of control; the T/C under setting [5] is 96 % of control; the T/C under setting [6] is 100 % of control.

With `C1=CCNCC1`, the T/C was 101 % of control under setting [1], 98 % of control under setting [3] and 103 % of control under setting [5].

For the compound `OC1C(Br)C2C3CC4C(C13)C42` (stereo unspecified), the T/C is 97 % of control (endpoint: mean survival time, dose: 50.0 mg/kg/injection, schedule: Q04DX002 (ip), vehicle: Klucel (hydroxypropylcellulose) (HPC)); 89 % of control (endpoint: mean survival time, dose: 100.0 mg/kg/injection, schedule: Q04DX002 (ip), vehicle: Klucel (hydroxypropylcellulose) (HPC)); 93 % of control (endpoint: mean survival time, dose: 200.0 mg/kg/injection, schedule: Q04DX002 (ip), vehicle: Klucel (hydroxypropylcellulose) (HPC)).

For `CC12CCC(=O)OC1(C)OC(=O)CC2` (stereo unspecified), the T/C under setting [7] is 94 % of control, the T/C under setting [8] is 100 % of control and the T/C under setting [9] was 95 % of control.

Turning to `Br/C=C(\Br)C[N+]12CN3CN(CN(C3)C1)C2`, the T/C runs as follows: under setting [10], 96 % of control; under setting [11], 100 % of control; under setting [12], 114 % of control; under setting [13], 101 % of control.

For `O=c1sc(=S)[nH]c2ccccc12`, the T/C was 88 % of control under setting [2] and 93 % of control under setting [4].

For `O=C(Nc1ccccc1C(F)(F)F)c1ccc(C(=O)Nc2ccccc2C(F)(F)F)cc1`, the T/C under setting [10] was 90 % of control; the T/C under setting [11] was 90 % of control; the T/C under setting [14] is 87 % of control; the T/C under setting [12] was 90 % of control; the T/C (endpoint: mean survival time, dose: 400.0 mg/kg/injection, schedule: Q01DX009 (ip), vehicle: saline with Tween-80) was 100 % of control; the T/C under setting [13] is 91 % of control.

As to `C/C=C(\Br)C(=O)Nc1ccc(OCC)cc1`, the T/C is 100 % of control under setting [1] and 105 % of control under setting [3].

On to `Oc1ccc(CCNCc2ccc3c(c2)OCO3)cc1`, for which the T/C is 88 % of control under setting [15]; 88 % of control under setting [16]; 88 % of control (endpoint: mean survival time, dose: 400.0 mg/kg/injection, schedule: Q01DX001 (ip), vehicle: Klucel (hydroxypropylcellulose) (HPC)).

For `OCC1C(CO)C2(Cl)C(Cl)=C(Cl)C1(Cl)C2(Cl)Cl` (stereo unspecified), the T/C is 90 % of control under setting [17]; 94 % of control under setting [18]; 100 % of control (endpoint: mean survival time, dose: 200.0 mg/kg/injection, schedule: Q01DX009 (ip), vehicle: Klucel (hydroxypropylcellulose) (HPC)); 101 % of control under setting [19]; 111 % of control (endpoint: mean survival time, dose: 400.0 mg/kg/injection, schedule: Q01DX009 (ip), vehicle: Klucel (hydroxypropylcellulose) (HPC)); 99 % of control under setting [20].

As to `O=NN(CCF)C(=O)NC12CC3CC(CC(C3)C1)C2`, the T/C is 124 % of control (endpoint: mean survival time, dose: 40.0 mg/kg/injection, schedule: Q01DX001 (ip), vehicle: carboxymethylcellulose (CMC)); 190 % of control (endpoint: mean survival time, dose: 60.0 mg/kg/injection, schedule: Q01DX001 (ip), vehicle: carboxymethylcellulose (CMC)); 192 % of control (endpoint: mean survival time, dose: 93.0 mg/kg/injection, schedule: Q01DX001 (ip), vehicle: carboxymethylcellulose (CMC)); 259 % of control (endpoint: mean survival time, dose: 187.0 mg/kg/injection, schedule: Q01DX001 (ip), vehicle: carboxymethylcellulose (CMC)).

In the case of `OC1OC2COC(c3ccccc3)OC2C(O)C1O` (stereo unspecified), the T/C was 106 % of control (endpoint: median survival time, dose: 25.0 mg/kg/injection, schedule: Q01DX009 (ip), vehicle: water); 106 % of control (endpoint: median survival time, dose: 50.0 mg/kg/injection, schedule: Q01DX009 (ip), vehicle: water); 97 % of control (endpoint: median survival time, dose: 100.0 mg/kg/injection, schedule: Q01DX009 (ip), vehicle: water); 100 % of control (endpoint: median survival time, dose: 200.0 mg/kg/injection, schedule: Q01DX009 (ip), vehicle: water); 101 % of control (endpoint: median survival time, dose: 400.0 mg/kg/injection, schedule: Q01DX009 (ip), vehicle: water); 96 % of control (endpoint: median survival time, dose: 800.0 mg/kg/injection, schedule: Q01DX009 (ip), vehicle: water).

On to `CC1(C)CC(C(N)=O)C(C)(C)N1O` (stereo unspecified), for which the T/C runs as follows: (endpoint: mean survival time, dose: 75.0 mg/kg/injection, schedule: Q01DX009 (ip), vehicle: other) 104 % of control; (endpoint: mean survival time, dose: 150.0 mg/kg/injection, schedule: Q01DX009 (ip), vehicle: other) 101 % of control; (endpoint: mean survival time, dose: 300.0 mg/kg/injection, schedule: Q01DX009 (ip), vehicle: other) 100 % of control.

Consider `CCC(C)C(NC(=O)OCc1ccccc1)C(=O)ON1C(=O)CCC1=O` (stereo unspecified), for which the T/C under setting [10] was 94 % of control and the T/C under setting [14] was 96 % of control.

For `CSc1nc(C)c(C)c(=O)[nH]1`, the T/C by setting is: under setting [1], 104 % of control; under setting [3], 116 % of control; under setting [5], 124 % of control.

For the compound `CC(N)=O.CC(N)=O.Nc1ccnc(=O)[nH]1.[Cl][Pt]`, the T/C is 110 % of control under setting [7]; 114 % of control under setting [18]; 114 % of control under setting [8]; 116 % of control under setting [19]; 101 % of control under setting [9]; 119 % of control under setting [20].

Turning to `O=[N+]([O-])/C=C/c1cccs1`, the T/C reads like this: under setting [15], 98 % of control; under setting [16], 103 % of control.

Regarding `O=C(O)C(=O)c1ccc(-c2ccccc2)cc1`, the T/C is 102 % of control (endpoint: mean survival time, dose: 5.0 mg/kg/injection, schedule: Q01DX Z (ip), vehicle: carboxymethylcellulose (CMC)); 100 % of control (endpoint: mean survival time, dose: 10.0 mg/kg/injection, schedule: Q01DX Z (ip), vehicle: carboxymethylcellulose (CMC)); 94 % of control (endpoint: mean survival time, dose: 20.0 mg/kg/injection, schedule: Q01DX Z (ip), vehicle: carboxymethylcellulose (CMC)); 100 % of control (endpoint: mean survival time, dose: 40.0 mg/kg/injection, schedule: Q01DX Z (ip), vehicle: carboxymethylcellulose (CMC)); 101 % of control (endpoint: mean survival time, dose: 75.0 mg/kg/injection, schedule: Q01DX001 (ip), vehicle: carboxymethylcellulose (CMC)); 101 % of control (endpoint: mean survival time, dose: 150.0 mg/kg/injection, schedule: Q01DX001 (ip), vehicle: carboxymethylcellulose (CMC)).

Turning to `CC1(C)CCC2CC(=O)OC2(C)C1` (stereo unspecified), the T/C was 109 % of control under setting [1]; 100 % of control under setting [7]; 95 % of control under setting [3]; 94 % of control under setting [8]; 92 % of control under setting [5]; 98 % of control under setting [9].

With `Nc1ncnc2nc(-c3ccc(-c4ccccc4)cc3)[nH]c12`, the T/C is, setting by setting: (endpoint: mean survival time, dose: 50.0 mg/kg/injection, schedule: Q01DX001 (ip), vehicle: Klucel (hydroxypropylcellulose) (HPC)) 92 % of control; under setting [15], 88 % of control; under setting [16], 97 % of control.

As for `CNC(=O)Oc1ccc2ccccc2c1`, the T/C was 101 % of control (endpoint: mean survival time, dose: 100.0 mg/kg/injection, schedule: Q01DX009 (ip), vehicle: other); 104 % of control (endpoint: mean survival time, dose: 200.0 mg/kg/injection, schedule: Q01DX009 (ip), vehicle: other); 93 % of control (endpoint: mean survival time, dose: 400.0 mg/kg/injection, schedule: Q01DX009 (ip), vehicle: other).

`COc1cc2cccc(OC)c(=O)c2c(O)c1OC`: the T/C is, setting by setting: (endpoint: mean survival time, dose: 25.0 mg/kg/injection, schedule: Q01DX009 (ip), vehicle: Klucel (hydroxypropylcellulose) (HPC)) 92 % of control; (endpoint: mean survival time, dose: 50.0 mg/kg/injection, schedule: Q01DX009 (ip), vehicle: Klucel (hydroxypropylcellulose) (HPC)) 96 % of control; under setting [17], 92 % of control and 106 % of control; under setting [2], 101 % of control; under setting [4], 92 % of control; under setting [6], 99 % of control.
